According to patent publication US20240216352A1 (priority 2022, published 2024):
Values joined by “and” are separate entries in the source; they are usually repeats but may differ in a detail not shown here. Equal entries are not always repeated.

Assays:
participants with IPF = test: Phase 2 study, IPF cohort: efficacy (ppFVC, FVC); assay type: in vivo, human; conditions: for Efficacy versus PBO (ppFVC, FVC): Week 26, overall population with and without SoC; for Relative reduction in rate of decline in ppFVC vs PBO: Week 26, overall; for Slope difference in rate of decline in FVC, 60 mg - PBO: adjusted for age, gender, height
Procedure: A total of 278 participants with IPF were randomized and 276 participants were treated as of the final analyses data cut-off (4 Aug. 2022). Male and female participants […] with IPF and percent predicted forced vital capacity (ppFVC) […] and percent predicted DLCO (ppDLCO)≥25%; diagnosed within 7 years of screening; having a centrally-read chest HRCT obtained at screening that was consistent with UIP or probable UIP, or having a lung biopsy consistent with UIP, were eligible to enter the study. The mean baseline ppFVC for all subjects was 76.5%. In the primary IPF cohort, participants were randomized (1:1:1) to receive 30 mg or 60 mg Compound A or placebo (PBO) twice daily for 26 weeks. Participants were stratified by standard of care (SoC) IPF therapy (pirfenidone versus nintedanib versus none) and region (Japan versus Rest of World) at randomization.
The primary objective of the study was to determine the rate of change in ppFVC from baseline to Week 26. The primary objective was evaluated with a two estimand framework to handle the intercurrent event of dose reduction to 10 mg BID or matching PBO when pre-specified low BP criteria is met. The primary estimand is adopted to estimate treatment effect when dose reduction is implemented. The supplementary estimand is adopted to estimate the effect of treatment without dose reduction.
Analysis Strategy: The primary estimand was to evaluate the efficacy of Compound A at 30 mg or 60 mg twice daily, compared to PBO in IPF participants who met the enrollment criteria, with or without use of SoC. The rate of decline in ppFVC (%) from baseline to Week 26 was compared using the difference between each dose and PBO as a population level summary regardless of dose reduction or treatment discontinuation for any reason (treatment policy strategy).
Analysis Strategy: The supplementary estimand for the primary objective is to evaluate the efficacy of Compound A at 30 mg or 60 mg twice daily without dose reduction, compared to the PBO in IPF subjects who met the enrollment criteria, with or without use of SoC. The rate of decline in ppFVC (%) from baseline to Week 26 has been compared using the difference between each dose and PBO as a population level summary regardless of treatment discontinuation for any reason (treatment policy strategy). In the event of dose reduction, data collected after dose reduction will not be considered relevant to the treatment effect of interest and therefore, will be treated as missing (while-on-treatment strategy).

LPA1 = LPA1 (Homo sapiens, UniProt Q92633); test: LPA1 antagonism (Kb) in CHO cells overexpressing human LPA1; assay type: cell-based; set-up: expressed in transfected cells; host or cells: CHO cells
Chain of LPA1 (Q92633 whole entry): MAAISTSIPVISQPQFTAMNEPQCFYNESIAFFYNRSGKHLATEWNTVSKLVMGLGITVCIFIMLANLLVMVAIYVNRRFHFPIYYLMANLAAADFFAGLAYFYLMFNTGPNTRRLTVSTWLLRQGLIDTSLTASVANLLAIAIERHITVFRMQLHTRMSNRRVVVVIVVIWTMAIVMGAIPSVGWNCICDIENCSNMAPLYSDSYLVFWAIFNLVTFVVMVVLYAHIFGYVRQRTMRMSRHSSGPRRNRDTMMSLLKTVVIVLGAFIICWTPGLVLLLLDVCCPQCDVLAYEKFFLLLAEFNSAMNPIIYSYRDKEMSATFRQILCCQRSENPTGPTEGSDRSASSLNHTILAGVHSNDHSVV
Excerpt: Compound A is currently in clinical development as a therapy for IPF and PF-ILD.

[1] = 60 mg BID, baseline to Week 26, No SoC, supplementary estimand
[2] = 60 mg BID, baseline to Week 26, overall, primary estimand
[3] = 60 mg BID, baseline to Week 26, overall, supplementary estimand

CCCN(C)C(=O)OCc1c(-c2ccc(O[C@H]3CCC[C@H](C(=O)O)C3)c(C)n2)nnn1C [Compound A, (1S,3S)-3-((2-methyl-6-(1-methyl-5-(((methyl(propyl)carbamoyl)-oxy)methyl)-1H-1,2,3-triazol-4-yl)pyridin-3-yl)oxy)cyclohexane-1-carboxylic acid]
Acute exacerbations of lung fibrosis, patients (participants with IPF; 30 mg BID): 3 n
Efficacy versus PBO (ppFVC, FVC) (participants with IPF; 30 mg BID): did not demonstrate efficacy compared to PBO
Rate of change in ppFVC over 26 weeks (participants with IPF; 30 mg BID, treatment policy strategy): −2.8%
Rate of change in ppFVC over 26 weeks (participants with IPF; 30 mg BID, while-on-treatment strategy): −3.2%
Acute exacerbations of lung fibrosis, patients (participants with IPF; 60 mg BID): 1 n
Relative treatment benefit in ppFVC decline vs PBO (participants with IPF; 60 mg BID, Week 26, No SoC, primary estimand): 113%
Relative treatment benefit in ppFVC decline vs PBO (participants with IPF; 60 mg BID, Week 26, No SoC, supplementary estimand): 123%
Relative treatment benefit in ppFVC decline vs PBO (participants with IPF; 60 mg BID, Week 26, on background SoC, primary estimand): 39%
Relative treatment benefit in ppFVC decline vs PBO (participants with IPF; 60 mg BID, Week 26, on background SoC, supplementary estimand): 44%
Efficacy versus PBO (ppFVC, FVC) (participants with IPF; 60 mg BID): demonstrated favorable treatment responses versus PBO
Relative reduction in rate of decline in ppFVC vs PBO (participants with IPF; 60 mg BID, primary estimand (treatment policy)): 54%
Relative reduction in rate of decline in ppFVC vs PBO (participants with IPF; 60 mg BID, supplementary estimand (while-on-treatment)): 62%
Slope difference in rate of decline in ppFVC, 60 mg - PBO (participants with IPF; 60 mg BID, baseline to Week 26, No SoC, primary estimand): 2.01±1.7% and 2.01%
Estimated rate of decline in ppFVC, slope (participants with IPF; [1]): 0.471
Slope difference in rate of decline in ppFVC, 60 mg - PBO (participants with IPF; [1]): 2.55±1.73% and 2.55%
Estimated rate of decline in ppFVC, slope (participants with IPF; 60 mg BID, baseline to Week 26, SoC, supplementary estimand): −1.772
Slope difference in rate of decline in ppFVC, 60 mg - PBO (participants with IPF; 60 mg BID, baseline to Week 26, on background SoC, primary estimand): 1.22±0.87% and 1.22%
Slope difference in rate of decline in ppFVC, 60 mg - PBO (participants with IPF; 60 mg BID, baseline to Week 26, on background SoC, supplementary estimand): 1.41±0.89% and 1.41%
Slope of decline in FVC, 60 mg arm (participants with IPF; [2]): -54.3 ± 20.76 mL
Slope difference in rate of decline in ppFVC, 60 mg - PBO (participants with IPF; 60 mg BID, baseline to Week 26, overall, primary estimand (treatment policy)): 1.45±0.81% and 1.4% and 1.45%
Slope difference in rate of decline in FVC, 60 mg - PBO (participants with IPF; [2]): 46.9 ± 29.14 mL and 46.9 mL
Estimated rate of decline in ppFVC, slope (participants with IPF; [3]): −1.1% and −1.08%
Slope of decline in FVC, 60 mg arm (participants with IPF; [3]): -47.2 ± 20.92 mL
Slope difference in rate of decline in ppFVC, 60 mg - PBO (participants with IPF; 60 mg BID, baseline to Week 26, overall, supplementary estimand (while-on-treatment)): 1.77±0.82% and 1.8% and 1.77%
Slope difference in rate of decline in FVC, 60 mg - PBO (participants with IPF; [3]): 61.4 mL
Posterior probability of a positive treatment difference vs placebo (Bayesian analysis) (participants with IPF; 60 mg BID, under both estimand strategies): > 95%
Adjusted mean treatment difference in absolute change in FVC vs placebo (participants with IPF; 60 mg BID, week 26): 45.5 mL
Kb (LPA1): 6.9 nM
